The text below walks through data of patent publication US7553862B2, “4-amino-1,5-substituted-1,5-dihydro-imidazol-2-ones” (Hoffmann-La Roche Inc., priority 2006, dated 2009).

One may read the IC50 as the concentration needed to halve the response being measured.

Structures are written as SMILES.

The test concerns the target T1, mGlyT-1b (Mus musculus, UniProt P28571).
T1 construct: host or cells: Flp-in-CHO
T1 sequence (P28571 1-651 isoform P28571-2): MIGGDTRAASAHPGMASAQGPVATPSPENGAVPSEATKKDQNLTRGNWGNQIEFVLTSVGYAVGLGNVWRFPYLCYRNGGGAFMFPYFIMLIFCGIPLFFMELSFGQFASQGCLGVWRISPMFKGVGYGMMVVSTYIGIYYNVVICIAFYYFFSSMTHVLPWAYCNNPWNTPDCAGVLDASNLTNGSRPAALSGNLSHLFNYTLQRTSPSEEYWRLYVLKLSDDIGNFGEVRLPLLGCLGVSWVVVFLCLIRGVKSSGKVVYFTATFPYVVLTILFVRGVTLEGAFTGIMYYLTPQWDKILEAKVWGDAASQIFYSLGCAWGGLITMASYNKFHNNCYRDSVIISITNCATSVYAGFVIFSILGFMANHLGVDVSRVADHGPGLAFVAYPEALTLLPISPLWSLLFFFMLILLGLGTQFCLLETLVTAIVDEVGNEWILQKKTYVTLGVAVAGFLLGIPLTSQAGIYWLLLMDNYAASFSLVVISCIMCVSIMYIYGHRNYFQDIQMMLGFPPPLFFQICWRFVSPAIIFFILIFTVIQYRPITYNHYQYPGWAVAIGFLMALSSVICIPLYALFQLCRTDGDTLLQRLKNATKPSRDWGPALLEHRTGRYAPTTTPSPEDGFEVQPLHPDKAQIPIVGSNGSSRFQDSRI
Description: Glycine uptake inhibition assay (mGlyT-1b). In kind it is cell-based. To be noted: [3H]-glycine uptake in Flp-in-CHO cells transfected with mGlyT-1b cDNA; read-out: IC50 (μM) at GlyT-1. The method, then:
DMEM complete medium: Nutrient mixture F-12 (Gibco Life-technologies), fetal bovine serum (FBS) 5%, (Gibco life technologies), Penicillin/Streptomycin1% (Gibco life technologies), Hygromycin 0.6 mg/ml (Gibco life technologies), Glutamine 1 mM Gibco life technologies) Uptake buffer (UB): 150 mM NaCl, 10 mM Hepes-Tris, pH 7.4, 1 mM CaCl2, 2.5 mM KCl, 2.5 mM MgSO4, 10 mM (+) D-glucose.
Flp-in™-CHO (Invitrogen Cat n° R758-07) cells stably transfected with mGlyT1b cDNA.
Glycine Uptake Inhibition Assay (mGlyT-1b)
On day 1 mammalian cells, (Flp-in™-CHO), transfected with mGlyT-1b cDNA, were plated at the density of 40,000 cells/well in complete F-12 medium, without hygromycin in 96-well culture plates. On day 2, the medium was aspirated and the cells were washed twice with uptake buffer (UB). The cells were then incubated for 20 min at 22° C. with either (i) no potential competitor, (ii) 10 mM non-radioactive glycine, (iii) a concentration of a potential inhibitor. A range of concentrations of the potential inhibitor was used to generate data for calculating the concentration of inhibitor resulting in 50% of the effect (e.g. IC50, the concentration of the competitor inhibiting glycine uptake of 50%). A solution was then immediately added containing [^3H]-glycine 60 nM (11-16 Ci/mmol) and 25 μM non-radioactive glycine. The plates were incubated with gentle shaking and the reaction was stopped by aspiration of the mixture and washing (three times) with ice-cold UB. The cells were lysed with scintillation liquid, shaken 3 hours and the radioactivity in the cells was counted using a scintillation counter.
With `O=C1N=C(NCc2ccccc2)C(c2ccccc2)N1c1ccc(Cl)cc1` (racemic) [Example 10, (Rac)-4-benzylamino-1-(4-chloro-phenyl)-5-phenyl-1,5-dihydro-imidazol-2-one], the IC50 amounted to 0.062 µM.

On to `O=C1N=C(NCc2ccccc2)C(c2ccccc2)N1c1ccc(Cl)c(Cl)c1` (racemic) [Example 13, Rac-4-benzylamino-1-(3,4-dichloro-phenyl)-5-phenyl-1,5-dihydro-imidazol-2-one], for which the IC50 was 0.076 µM. Next, `Cc1ccc(C2C(NCc3ccccc3)=NC(=O)N2c2ccc(Cl)c(Cl)c2)cc1` (racemic) [Example 24, (Rac)-4-benzylamino-1-(3,4-dichloro-phenyl)-5-p-tolyl-1,5-dihydro-imidazol-2-one]: 0.04 µM; `Cc1ccc(C2C(NCc3ccccc3)=NC(=O)N2c2ccc(Cl)c(Cl)c2)cc1C` (racemic) [Example 25, Rac-4-benzylamino-1-(3,4-dichloro-phenyl)-5-(3,4-dimethyl-phenyl)-1,5-dihydro-imidazol-2-one]: 0.057 µM; `O=C1N=C(NCc2ccccc2)C(c2ccc(Cl)cc2)N1c1ccc(Cl)c(Cl)c1` (racemic) [Example 28, (Rac)-4-benzylamino-5-(4-chloro-phenyl)-1-(3,4-dichloro-phenyl)-1,5-dihydro-imidazol-2-one]: 0.035 µM. The value for `O=C1N=C(NCc2ccccc2)C(c2ccc(F)cc2)N1c1ccc(Cl)c(Cl)c1` (racemic) [Example 43, (Rac)-4-benzylamino-1-(3,4-dichloro-phenyl)-5-(4-fluoro-phenyl)-1,5-dihydro-imidazol-2-one] was 0.03 µM; that for `O=C1N=C(NCc2ccccc2)C(c2ccc(F)cc2)N1c1ccc(F)c(Cl)c1` (racemic) [Example 44, Rac-4-Benzylamino-1-(3-chloro-4-fluoro-phenyl)-5-(4-fluoro-phenyl)-1,5-dihydro-imidazol-2-one] was 0.058 µM. Next, `O=C1N=C(NCc2ccc(F)cc2)C(c2ccccc2)N1c1ccc(Cl)c(Cl)c1` (racemic) [Example 51, Rac-1-(3,4-dichloro-phenyl)-4-(4-fluorobenzylamino)-5-phenyl-1,5-dihydro-imidazol-2-one]: 0.007 µM; `CC(C)CCNC1=NC(=O)N(c2ccc(Cl)c(Cl)c2)C1c1ccccc1` (racemic) [Example 53, Rac-1-(3,4-dichloro-phenyl)-4-(3-methyl-butylamino)-5-phenyl-1,5-dihydroimidazol-2-one]: 0.082 µM; `CCCCCCNC1=NC(=O)N(c2ccc(Cl)c(Cl)c2)C1c1ccccc1` (racemic) [Example 57, (Rac)-1-(3,4-dichloro-phenyl)-4-hexylamino-5-phenyl-1,5-dihydro-imidazol-2-one]: 0.077 µM.

Take `O=C1N=C(NCC2CCCCC2)C(c2ccccc2)N1c1ccc(Cl)c(Cl)c1` (racemic) [Example 58, (Rac)-4-(cyclohexylmethyl-amino)-1-(3,4-dichloro-phenyl)-5-phenyl-1,5-dihydro-imidazol-2-one]: the IC50 was determined as 0.024 µM. On to `O=C1N=C(NCc2ccccc2)[C@@H](c2ccccc2)N1c1ccc(Cl)cc1` (single isomer, unassigned) [Example 50, (−)-4-Benzylamino-1-(4-chloro-phenyl)-5-phenyl-1,5-dihydro-imidazol-2-one], for which the half-maximal inhibitory concentration (IC50) was found to be 0.062 µM.
